Assay results from patent US12297192B2, “Crystal form of pyrimidine sulfonamide compound and preparation method therefor” (WUXI BIOCITY BIOPHARMACEUTICS CO., LTD., priority 2019, dated 2025).

Legend:
[1] = Stability test of Crystal Form A in different solvents (XRPD after 3 days stirring in saturated solutions); assay type: physicochemical; settings: for Crystalline (form by XRPD, 3 days later) / Status (3 days later): 0.3 mL
Procedure: The crude compound of formula (I) was dissolved in dichloromethane at 38-40° C., filtered while hot, concentrated under reduced pressure to dryness to obtain mixed crystals of formula (I). Saturated solutions of mixed crystals of the compound of formula (I) in THF and ACN were prepared at 50° C., respectively.
The suspension was centrifuged. The precipitate was taken and dried overnight in a vacuum oven at 30° C. The dried product was subjected to XRPD to determine the status of the crystal forms.

[2] = tested on: pulmonary hypertension in SD rats induced by monocrotaline (MCT); assay: In vivo pharmacodynamic evaluation, monocrotaline (MCT)-induced pulmonary hypertension model; settings: for 21-day weight change rate / PCNA positivity rate / Percentage of middle pulmonary artery intima-media thickness / Right ventricular ejection fraction / Right ventricular hypertrophy index / Right ventricular systolic pressure / Right ventricular wall thickness: 21 days, Mean ± SEM, n = 12
Description: The animal model of pulmonary hypertension in SD rats induced by monocrotaline (MCT) was used in this study to examine the pharmacological effects of the test compound on a rat model of pulmonary hypertension.
• Species: Rat • Strain: Sprague-Dawley • Age at arrival at animal house: 5 weeks • Gender: Male • Animal weight at the start of the experiment: 200-260 g • Number: 88 (81 for pharmacodynamic (PD) and pharmacokinetic (PK) tests and 7 for PK-blank matrix) • Supplier: Shanghai SLAC Experimental Animals Co. • Certificate of the animals: 20170005008695 Other Reagent Information
Solutions of 3 mg/mL Macitentan, 0.1 mg/mL, 0.3 mg/mL and 1 mg/mL the compound of formula (I): an appropriate amount of the compound was weighed and added to a flask with an appropriate volume. PEG 400 of 20% of the total volume was added. Heating and stirring were conducted at 40° C. Tween 80 of 0.5% of the total volume was added. Heating and stirring were conducted at 40° C. Deionized water of 70-75% of the volume was added. Heating and stirring were conducted at 40° C. The pH was adjusted with 5 N NaOH until became clear. Then the pH was reversely adjusted to less than 9 with 6 N HCl and 1 N HCl. The remaining volume was made up with deionized water to achieve the total volume. The final pH was determined (9±0.1).
After the animals had been acclimatized for about 1 week, the animals were randomized into 9 groups according to body weight and the condition of the animal, as shown in Table 15.
Monitoring Indicators Monitoring Indicators in PD Tests • 1) Daily monitoring of the general condition of the animals and their body weights; • 2) Right ventricular function tests: right ventricular ejection fraction (RVEF), right ventricular wall thickness (RVWT); • 3) Hemodynamic tests: right ventricular systolic pressure (RVSP); • 4) Determination of the right ventricular hypertrophy index (RVHI): RV/(LV+SEP); • 5) […] staining to observe PAWT/IHC staining to observe PCNA as the endpoint detection. Monitoring Indicators in PK Tests • 1) Daily monitoring of the general condition of the animals and their body weights; • 2) Plasma: determination of the pharmacokinetic parameters of the compounds in plasma. Test Method B-Mode Ultrasonic Detection of RVEF, RVWT
Rats were anesthetized with 30 mg/mL pentobarbital sodium (2 mL/kg, ip) and RVEF, RVWT were measured using a small animal ultrasound instrument (VEVO-1100).
Rats were anesthetized with 30 mg/mL sodium pentobarbital (2 mL/kg, ip), fixed onto a surgical plate in supine position, and shaved on the neck. A skin incision was made on the neck. The subcutaneous tissue and muscle layer were bluntly dissected. And the left carotid artery and right jugular vein were stripped. A rat-specific right heart catheter (a PE tube with an external diameter of about 1.5 mm and a small arc-shaped curve at the distal end) connected to a pressure transducer and filled with 0.3% heparin sodium solution was inserted into the right external jugular vein. The arc of the pulmonary artery catheter was kept downwards during the operation and the pulmonary artery catheter was threaded towards the right atrium. The pressure waveform was used to judge whether it had reached the heart. The catheter was deflected towards the left and pushed forward into the right ventricle.
The heart was removed. The atria and great vessels were removed. Blotted to dryness with filter paper. The right ventricle was stripped and weighed to calculate RVHI=RV/(LV+SEP).
After euthanasia of the rats, the middle lobe of the right lung was removed, perfused using saline and placed in 4% paraformaldehyde for fixation for the purpose of pathological examination.
All data was entered into an Excel document and expressed as mean (Mean)±standard error of mean (SEM). One-way ANOVA with Dunnett's t test was used to analyze and compare the data of each group. Differences between two groups were compared using the unpaired two-tailed t-test method.

SMILES: COCCNS(=O)(=O)Nc1ncnc(OCCOc2ncc(Br)cn2)c1-c1ccc2c(c1)OCO2
- Crystalline (form by XRPD, 3 days later) ([1]; Acetonitrile, 25 °C): Crystal Form A
- Status (3 days later) ([1]; Acetonitrile, 25 °C): Precipitation
- Crystalline (form by XRPD, 3 days later) ([1]; Acetonitrile, 50 °C): Crystal Form A
- Status (3 days later) ([1]; Acetonitrile, 50 °C): Precipitation
- Crystalline (form by XRPD, 3 days later) ([1]; Tetrahydrofuran, 25 °C): Crystal Form A
- Status (3 days later) ([1]; Tetrahydrofuran, 25 °C): Precipitation
- Crystalline (form by XRPD, 3 days later) ([1]; Tetrahydrofuran, 50 °C): Crystal Form A
- Status (3 days later) ([1]; Tetrahydrofuran, 50 °C): Precipitation
- Stability in solvents (conclusion in words) ([1]; acetonitrile and tetrahydrofuran at both 25° C. and 50° C.): Experimental conclusion: Crystal Form A of the compound of formula (I) had good stability in acetonitrile and tetrahydrofuran at both 25 °C and 50 °C

SMILES: COCCNS(=O)(=O)Nc1ncnc(OCCOc2ncc(Br)cn2)c1-c1ccc2c(c1)OCO2 [Compound of formula (I)]
- 21-day weight change rate ([2]; 1 mg/kg PO/QD): 43.33 ± 1.56%
- PCNA positivity rate ([2]; 1 mg/kg PO/QD): 3.6 ± 0.69 %
- Percentage of middle pulmonary artery intima-media thickness ([2]; 1 mg/kg PO/QD): 40.44 ± 1.13 %
- Right ventricular ejection fraction ([2]; 1 mg/kg PO/QD): 58.48 ± 2.11 %
- Right ventricular hypertrophy index ([2]; 1 mg/kg PO/QD): 0.40 ± 0.01
- Right ventricular systolic pressure ([2]; 1 mg/kg PO/QD): 40.72 ± 3.38 mmHg
- Right ventricular wall thickness ([2]; 1 mg/kg PO/QD): 1.16 ± 0.05 mm
- 21-day weight change rate ([2]; 3 mg/kg PO/QD): 41.23 ± 3.47%
- PCNA positivity rate ([2]; 3 mg/kg PO/QD): 3.56 ± 0.66 %
- Percentage of middle pulmonary artery intima-media thickness ([2]; 3 mg/kg PO/QD): 35.44 ± 1.55 %
- Right ventricular ejection fraction ([2]; 3 mg/kg PO/QD): 58 ± 1.80 %
- Right ventricular hypertrophy index ([2]; 3 mg/kg PO/QD): 0.38 ± 0.03
- Right ventricular systolic pressure ([2]; 3 mg/kg PO/QD): 36.70 ± 3.81 mmHg
- Right ventricular wall thickness ([2]; 3 mg/kg PO/QD): 1.11 ± 0.05 mm
- 21-day weight change rate ([2]; 10 mg/kg PO/QD): 42.04 ± 3.07%
- PCNA positivity rate ([2]; 10 mg/kg PO/QD): 2.85 ± 0.65 %
- Percentage of middle pulmonary artery intima-media thickness ([2]; 10 mg/kg PO/QD): 40.11 ± 1.07 %
- Right ventricular ejection fraction ([2]; 10 mg/kg PO/QD): 59.86 ± 2.29 %
- Right ventricular hypertrophy index ([2]; 10 mg/kg PO/QD): 0.36 ± 0.02
- Right ventricular systolic pressure ([2]; 10 mg/kg PO/QD): 37.82 ± 3.10 mmHg
- Right ventricular wall thickness ([2]; 10 mg/kg PO/QD): 1.10 ± 0.05 mm
- Indicators of pulmonary hypertension and right ventricular function (in words) ([2]; doses of 1, 3 and 10 mg/kg): significantly improved

SMILES: CCCNS(=O)(=O)Nc1ncnc(OCCOc2ncc(Br)cn2)c1-c1ccc(Br)cc1 [Macitentan, reference compound]
- 21-day weight change rate ([2]; 30 mg/kg gavage once a day): 45.75 ± 2.14%
- PCNA positivity rate ([2]; 30 mg/kg gavage once a day): 4.43 ± 0.42%
- Percentage of middle pulmonary artery intima-media thickness ([2]; 30 mg/kg gavage once a day): 46.56 ± 1.07 %
- Right ventricular ejection fraction ([2]; 30 mg/kg gavage once a day): 58.87 ± 1.71 %
- Right ventricular hypertrophy index ([2]; 30 mg/kg gavage once a day): 0.36 ± 0.03
- Right ventricular systolic pressure ([2]; 30 mg/kg gavage once a day): 38.71 ± 3.52 mmHg
- Right ventricular wall thickness ([2]; 30 mg/kg gavage once a day): 1.13 ± 0.04 mm
